Values after ≈ are worked out from the molar mass of the structure shown. Like-named read-outs stand apart in the source and are kept apart here.
Assays:
[1] = system: NTBC104-1 (K. pneumoniae strain expressing NDM-1 and SHV-11); experiment: Meropenem MIC, broth micro-dilution, NTBC104-1; type: cell-based; details: Klebsiella pneumoniae
Protocol: (§1) The experiments were carried out using the ‘broth micro-dilution method’ according to the protocols M07-A8 established by the Clinical Laboratory Standards Institute (CLSI). Serial dilutions of the β-lactam antibiotic (Meropenem) were prepared in 96-well plates in cation-adjusted Mueller-Hinton broth (CAMHB); the concentration range was defined from 0.03 mg/L to 512 mg/L. The compounds were added at a constant concentration of 8 μg/mL. A bacterial inoculum of each strain (clinical isolates) was adjusted to a 0.5 McFarland turbidity standard in physiologic serum (0.9% NaCl), then diluted 1:100 in CAMHB and added to each well to give a final bacterial cell number of 5×10^5 CFU/well. After incubation for 18-20 hours in a heating chamber at 37° C., the growth inhibition was evaluated by the absence of any bacterial development.
Compounds of the invention were tested at a constant concentration of 8 μg/mL. The clinical strains used in these potentiation experiments were NTBC020 (E. coli strain expressing NDM-1, TEM-1 and CTX-M-15); NTBC035-2 (K. pneumoniae strain expressing NDM-1, CMY-4 and SHV-11); NTBC104-1 (K. pneumoniae strain expressing NDM-1 and SHV-11); NTBC123 (K. pneumoniae strain expressing NDM-1); NTBC018 (C. freundii strain expressing VIM-2); NTBC024 (K. pneumoniae strain expressing VIM-19, TEM-1 and CTX-M-3); NTBC042 (E. coli strain expressing VIM-1, TEM-1, CTX-M-15, SHV-12); NTBC055 (E. Coli strain expressing VIM-1); NTBC062 (K. pneumoniae strain expressing IMP-1 and TEM-1) and NTBC039 (K. oxytoca strain expressing IMP-28).
(§2) Mice were infected in the thigh with K. pneumoniae NTBC104. […] The MIC of meropenem in the presence of 8 ug/mL of the compound of Example 2 is 4 ug/mL.
(§3) Experiments were carried out using the ‘broth micro-dilution method’ according to the protocols M07-A8 established by the Clinical Laboratory Standards Institute (CLSI). […] After incubation for 18-20 hours in a heating chamber at 37° C., the growth inhibition was evaluated by the absence of any bacterial development. […]

[2] = system: NTBC123 (K. pneumoniae strain expressing NDM-1); experiment: Meropenem MIC, broth micro-dilution, NTBC123; type: cell-based; details: Klebsiella pneumoniae, read-out: MIC mero
Protocol: as §1
(§4) Compounds of the invention were tested at a constant concentration of 8 μg/mL. […]
as §3

[3] = system: NTBC024 (K. pneumoniae strain expressing VIM-19, TEM-1 and CTX-M-3); experiment: Meropenem MIC, broth micro-dilution, NTBC024; type: cell-based; details: Klebsiella pneumoniae, read-out: MIC mero
Protocol: as §1, §4, §3

[4] = system: NTBC042 (E. coli strain expressing VIM-1, TEM-1, CTX-M-15, SHV-12); experiment: Meropenem MIC, broth micro-dilution, NTBC042; type: cell-based; details: Escherichia coli, read-out: MIC mero
Protocol: as §1, §4, §3

[5] = system: NTBC062 (K. pneumoniae strain expressing IMP-1 and TEM-1); experiment: Meropenem MIC, broth micro-dilution, NTBC062; type: cell-based; details: Klebsiella pneumoniae, read-out: MIC mero
Protocol: as §1, §4, §3

[6] = system: NTBC189 (K. pneumonia strain expressing TEM-OSBL, CTX-M-14 and OXA-48); experiment: Meropenem MIC, broth micro-dilution, NTBC189; type: cell-based; details: Klebsiella pneumoniae, read-out: MIC mero
Protocol: as §1, with “Experiments” for “The experiments”, “meropenem (mero)” for “the β-lactam antibiotic (Meropenem)”, “compounds (the compound of Example 2, above, and/or WCK4234)” for “compounds”, “the” for “a constant”, “indicated in the table below.” for “of 8 μg/mL.”
NTBC091-1 (E. coli strain expressing KPC-2 and TEM-1); NTBC093 (E. cloacae strain expressing KPC-2 and TEM-1); NTBC096-1 (K. pneumonia strain expressing OXA-181 and SHV-11); NTBC099 (K. pneumonia strain expressing KPC-3, SHV-11 and TEM-1); and NTBC189 (K. pneumonia strain expressing TEM-OSBL, CTX-M-14 and OXA-48).

[7] = system: NTBC019 (K. pneumonia strain expressing NDM-1, CTX-M-15 and OXA-181); experiment: Meropenem MIC, broth micro-dilution, NTBC019; type: cell-based; details: Klebsiella pneumoniae
Protocol: as §1, with “Experiments” for “The experiments”, “meropenem (mero)” for “the β-lactam antibiotic (Meropenem)”, “compounds (the compound of Example 2, above, and/or WCK4234)” for “compounds”, “the” for “a constant”, “indicated in the table below.” for “of 8 μg/mL.”
(§5) NTBC019 (K. pneumonia strain expressing NDM-1, CTX-M-15 and OXA-181); NTBC185 (K. pneumonia strain expressing SHV-OSBL, TEM-OSBL, NDM-1 and OXA-48); NTBC186 (K. pneumonia strain expressing ACT-TYPE, VIM-1 and OXA-48); NTBC187 (K. pneumonia strain expressing SHV-OSBL, NDM-1 and OXA-48); and NTBC188 (K. pneumonia strain expressing NDM-1 and KPC-2).
(§6) Experiments were conducted as described above. Compounds (the compounds of Examples 2 and 26) were tested at 8 μg/mL. […] MIC values were determined for […]

[8] = system: NTBC185 (K. pneumonia strain expressing SHV-OSBL, TEM-OSBL, NDM-1 and OXA-48); experiment: Meropenem MIC, broth micro-dilution, NTBC185; type: cell-based; details: Klebsiella pneumoniae, read-out: MIC mero
Protocol: as §1, with “Experiments” for “The experiments”, “meropenem (mero)” for “the β-lactam antibiotic (Meropenem)”, “compounds (the compound of Example 2, above, and/or WCK4234)” for “compounds”, “the” for “a constant”, “indicated in the table below.” for “of 8 μg/mL.”
as §5

[9] = system: NTBC188 (K. pneumonia strain expressing NDM-1 and KPC-2); experiment: Meropenem MIC, broth micro-dilution, NTBC188; type: cell-based; details: Klebsiella pneumoniae
Protocol: as §1, with “Experiments” for “The experiments”, “meropenem (mero)” for “the β-lactam antibiotic (Meropenem)”, “compounds (the compound of Example 2, above, and/or WCK4234)” for “compounds”, “the” for “a constant”, “indicated in the table below.” for “of 8 μg/mL.”
as §5, §6

K. pneumoniae NTBC104 = experiment: In vivo efficacy, mouse thigh infection with K. pneumoniae NTBC104; details: meropenem at 30 mg/kg alone, 9 hours post infection
Protocol: as §2
At the end of the experiment (9 hours post infection) the animals were sacrificed and the numbers of colony forming units (CFUs) were measured in order to quantify bacterial load (extent of the infection).

C[C@@H](O)[C@H]1C(=O)N2C(C(=O)O)=C(S[C@@H]3CN[C@H](C(=O)N(C)C)C3)[C@H](C)[C@H]12 [Meropenem]
MIC ([1]; read-out: MIC mero): 64 µg/mL | MIC ([1]; read-out: MIC of meropenem against K. pneumoniae NTBC104): 64 µg/mL | MIC [2]: 128 µg/mL | MIC [3]: 16 µg/mL | MIC [4]: 8 µg/mL | MIC [5]: 4 µg/mL | MIC [6]: 16 µg/mL (≈ 41.7 µM) | MIC ([7]; read-out: MIC mero): 64 µg/mL (≈ 167 µM) | MIC ([7]; read-out: MIC, NTBC19): 8 to 512 µg/mL (≈ 20.9 to 1340 µM) | MIC [8]: 128 µg/mL (≈ 334 µM) | MIC ([9]; read-out: MIC mero): 32 µg/mL (≈ 83.4 µM) | MIC ([9]; read-out: MIC, NTBC188): 8 to 512 µg/mL (≈ 20.9 to 1340 µM) | bacterial load (CFUs) (K. pneumoniae NTBC104): reduced bacterial load slightly

Reference: patent publication US11299467B2 (Antabio SAS, priority 2017, dated 2022)
